#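 Test compounds were applied to cells in 96-well plates for 48 hours at 5 doses. GI50: concentration for 50% inhibition of growth.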 Calls of active or inactive are those of the source. Rule as the data show it: active = GI50 up to about 1.1 µM and inactive = higher.
# Columns and labels:
# Test in all cases: NCI anticancer screen, dose series, 48 h
# 786-0 = tested on: 786-0
# A498 = tested on: A498
# A549 = tested on: A549
# ACHN = tested on: ACHN
# CAKI-1 = tested on: CAKI-1
# CCRF-CEM = tested on: CCRF-CEM
# COLO 205 = tested on: COLO 205
# DLD-1 = tested on: DLD-1
# DMS-114 = tested on: DMS-114
# DMS-273 = tested on: DMS-273
# EKVX = tested on: EKVX
# HCC 2998 = tested on: HCC 2998
# HCT-116 = tested on: HCT-116
# HCT-15 = tested on: HCT-15
# HL-60 = tested on: HL-60
# HOP-18 = tested on: HOP-18
# HOP-62 = tested on: HOP-62
# HOP-92 = tested on: HOP-92
# HT-29 = tested on: HT-29
# IGROV-1 = tested on: IGROV-1
# K562 = tested on: K562
# KM-20L2 = tested on: KM-20L2
# KM12 = tested on: KM12
# LOX IMVI = tested on: LOX IMVI
# LXFL 529 = tested on: LXFL 529
# M14 = tested on: M14
# M19-MEL = tested on: M19-MEL
# MOLT-4 = tested on: MOLT-4
# Malme-3M = tested on: Malme-3M
# NCI-H23 = tested on: NCI-H23
# NCI-H460 = tested on: NCI-H460
# NCI-H522 = tested on: NCI-H522
# OVCAR-3 = tested on: OVCAR-3
# OVCAR-4 = tested on: OVCAR-4
# OVCAR-5 = tested on: OVCAR-5
# OVCAR-8 = tested on: OVCAR-8
# SF-268 = tested on: SF-268
# SF-295 = tested on: SF-295
# SF-539 = tested on: SF-539
# SK-MEL-28 = tested on: SK-MEL-28
# SK-MEL-2 = tested on: SK-MEL-2
# SK-MEL-5 = tested on: SK-MEL-5
# SK-OV-3 = tested on: SK-OV-3
# SN12C = tested on: SN12C
# SNB-19 = tested on: SNB-19
# SNB-75 = tested on: SNB-75
# SR = tested on: SR
# SW-620 = tested on: SW-620
# TK-10 = tested on: TK-10
# U-251 = tested on: U-251
# UACC-257 = tested on: UACC-257
# UACC-62 = tested on: UACC-62
# UO-31 = tested on: UO-31
# XF498 = tested on: XF498
smiles,measurement,setting,value
COc1cc(Nc2cnc3cc(N)ccc3n2)cc(OC)c1OC,GI50,786-0,> 100 µM (inactive)
same,GI50,A498,> 100 µM (inactive)
same,GI50,A549,> 100 µM (inactive)
same,GI50,ACHN,> 100 µM (inactive)
same,GI50,CAKI-1,83.4 µM (inactive)
same,GI50,CCRF-CEM,40.3 µM (inactive)
same,GI50,COLO 205,> 100 µM (inactive)
same,GI50,DLD-1,> 100 µM (inactive)
same,GI50,DMS-114,65.8 µM (inactive)
same,GI50,DMS-273,11.7 µM (inactive)
same,GI50,EKVX,58.6 µM (inactive)
same,GI50,HCC 2998,50.1 µM (inactive)
same,GI50,HCT-116,> 100 µM (inactive)
same,GI50,HCT-15,55.2 µM
same,GI50,HL-60,40.1 µM (inactive)
same,GI50,HOP-18,51.3 µM (inactive)
same,GI50,HOP-62,97.7 µM (inactive)
same,GI50,HOP-92,> 100 µM (inactive)
same,GI50,HT-29,62.5 µM (inactive)
same,GI50,IGROV-1,> 100 µM (inactive)
same,GI50,K562,42.3 µM (inactive)
same,GI50,KM-20L2,> 100 µM (inactive)
same,GI50,KM12,> 100 µM (inactive)
same,GI50,LOX IMVI,65.5 µM (inactive)
same,GI50,LXFL 529,82.4 µM (inactive)
same,GI50,M14,98.6 µM (inactive)
same,GI50,M19-MEL,74.8 µM (inactive)
same,GI50,MOLT-4,52.2 µM (inactive)
same,GI50,Malme-3M,> 100 µM (inactive)
same,GI50,NCI-H23,> 100 µM (inactive)
same,GI50,NCI-H460,34.1 µM (inactive)
same,GI50,NCI-H522,57.5 µM (inactive)
same,GI50,OVCAR-3,53.8 µM (inactive)
same,GI50,OVCAR-4,> 100 µM (inactive)
same,GI50,OVCAR-5,> 100 µM (inactive)
same,GI50,OVCAR-8,78.2 µM (inactive)
same,GI50,SF-268,> 100 µM (inactive)
same,GI50,SF-295,72.4 µM (inactive)
same,GI50,SF-539,> 100 µM (inactive)
same,GI50,SK-MEL-28,> 100 µM (inactive)
same,GI50,SK-MEL-2,> 100 µM (inactive)
same,GI50,SK-MEL-5,69 µM (inactive)
same,GI50,SK-OV-3,69.7 µM (inactive)
same,GI50,SN12C,94.6 µM (inactive)
same,GI50,SNB-19,> 100 µM (inactive)
same,GI50,SNB-75,> 100 µM (inactive)
same,GI50,SR,44.1 µM (inactive)
same,GI50,SW-620,> 100 µM (inactive)
same,GI50,TK-10,> 100 µM (inactive)
same,GI50,U-251,65.2 µM (inactive)
same,GI50,UACC-257,> 100 µM (inactive)
same,GI50,UACC-62,64.4 µM (inactive)
same,GI50,UO-31,61.2 µM (inactive)
same,GI50,XF498,81.5 µM (inactive)

# Reference: ChEMBL document CHEMBL1201862, “PubChem BioAssay data set” (2004)
